# Legend:
# Assay type in all cases: cell-based
# [1] = test system: ACINETOBACTER CALCOACETICUS CMX 669; test: In vitro antibacterial activity, MIC, BHI agar dilution; details: A. calcoaceticus CMX 669, unit assumed
# ESCHERICHIA COLI JUHL = details: E. coli JUHL; BHI agar; unit assumed
# PSEUDOMONAS CEPACIA 296I = test: In vitro antibacterial activity, MIC, BHI agar dilution; details: P. cepacia 296I, unit assumed
# [2] = test system: PSEUDOMONAS AERUGINOSA DPHD-2862; test: as above; details: P. aeruginosa DPHD-2862, unit assumed
# [3] = test system: STAPHYLOCOCCUS AUREUS 1775; test: as above; details: S. aureus 1775, unit assumed
# CANDIDA ALBICANS CCH 442 = test: as above; details: C. albicans CCH 442, unit assumed
# [4] = test system: STAPHYLOCOCCUS EPIDERMIDIS 3519; details: S. epidermidis 3519; BHI agar; unit assumed
# [5] = test system: MYCOBACTERIUM SMEGMATIS ATCC 114; test: In vitro antibacterial activity, MIC, BHI agar dilution; details: M. smegmatis ATCC 114, unit assumed
# [6] = test system: PSEUDOMONAS AERUGINOSA DPHD-5263; test: as above; details: P. aeruginosa DPHD-5263, unit assumed
# [7] = test system: STAPHYLOCOCCUS AUREUS A5177; test: as above
# M[…] ATCC 4698 = test: as above; details: M. luteus ATCC 4698, unit assumed
# Summary of the method: (§1)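 BHI agar dilution, 12 plates; inoculum 1:100 (1:10 slow-growing strains), Steers replicator; 35-37° C, 20-24 h. MIC = lowest conc. with no growth/slight haze/sparse colonies vs growth control, visual read. Erythromycin A reference plate.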
# EN[…] ATCC 8043 = test: as above; details: E. faecium ATCC 8043, unit assumed
# Summary of the method: as §1
# STR[…] 508 = test: as above; details: S. agalactiae CMX 508, unit assumed
# Summary of the method: as §1
# M[…] ATCC 9341 = test: as above; details: M. luteus ATCC 9341, unit assumed
# Summary of the method: as §1
# ESCHERICHIA COLI DC-2 = test: as above; details: E. coli DC-2, unit assumed
# [8] = test system: PROVIDENCIA STUARTII CMX 640; details: P. stuartii CMX 640; BHI agar; unit assumed
# [9] = test system: PSEUDOMONAS AERUGINOSA K799/WT; test: In vitro antibacterial activity, MIC, BHI agar dilution; details: P. aeruginosa K799/WT, unit assumed
# [10] = test system: STREPTOCOCCUS PYOGENES 930; test: as above; details: S. pyogenes 930, unit assumed
# [11] = test system: STAPHYLOCOCCUS AUREUS ATCC 6538P; test: as above; details: S. aureus ATCC 6538P, 35-37° C., 20 to 24 hours, unit assumed
# [12] = test system: STAPHYLOCOCCUS AUREUS A-5278; test: as above; details: S. aureus A-5278, unit assumed
# [13] = test system: PSEUDOMONAS AERUGINOSA 5007; test: as above; details: P. aeruginosa 5007, unit assumed
# [14] = test system: PSEUDOMONAS AERUGINOSA K799/61; test: as above; details: P. aeruginosa K799/61, unit assumed
# [15] = test system: PSEUDOMONAS AERUGINOSA BMH10; test: as above; details: P. aeruginosa BMH10, unit assumed
# [16] = test system: ENTEROBACTER AEROGENES ATCC 13048; test: as above; details: E. aerogenes ATCC 13048, unit assumed
# ESCHERICHIA COLI H560 = test: as above; details: E. coli H560, unit assumed
# [17] = test system: STAPHYLOCOCCUS AUREUS NCTC10649M; test: as above; details: S. aureus NCTC10649M, unit assumed
# ESCHERICHIA COLI SS = test: as above; details: E. coli SS, unit assumed
# [18] = test system: STAPHYLOCOCCUS AUREUS CMX 642A; test: as above; details: S. aureus CMX 642A, unit assumed
# [19] = test system: KLEBSIELLA PNEUMONIAE ATCC 8045; test: as above; details: K. pneumoniae ATCC 8045, unit assumed
# [20] = test system: STAPHYLOCOCCUS AUREUS CMX 553; test: as above; details: S. aureus CMX 553, unit assumed
# [21] = test system: STREPTOCOCCUS BOVIS A-5169; test: as above; details: S. bovis A-5169, unit assumed
# [22] = test system: STREPTOCOCCUS PYOGENES EES61; test: as above; details: S. pyogenes EES61, unit assumed
# ESCHERICHIA COLI KNK 437 = details: E. coli KNK 437; BHI agar; unit assumed
# [23] = test system: STREPTOCOCCUS PYOGENES PIU 2548; test: In vitro antibacterial activity, MIC, BHI agar dilution; details: S. pyogenes PIU 2548, unit assumed
Compound,MIC [1] [µg/mL],MIC (ESCHERICHIA COLI JUHL) [µg/mL],MIC (PSEUDOMONAS CEPACIA 296I) [µg/mL],MIC [2] [µg/mL],MIC [3] [µg/mL],MIC (CANDIDA ALBICANS CCH 442) [µg/mL],MIC [4] [µg/mL],MIC [5] [µg/mL],MIC [6] [µg/mL],MIC (M[…] ATCC 4698) [µg/mL],MIC (EN[…] ATCC 8043) [µg/mL],MIC (STR[…] 508) [µg/mL],MIC (M[…] ATCC 9341) [µg/mL],MIC (ESCHERICHIA COLI DC-2) [µg/mL],MIC [8] [µg/mL],MIC [9] [µg/mL],MIC [10] [µg/mL],MIC [11] [µg/mL],MIC [12] [µg/mL],MIC [13] [µg/mL],other results
CCC1OC(=O)C(C)C(=O)C(C)C(OC2OC(C)CC(N(C)C)C2O)C(C)(OC)CC(C)C2=NC(CN)CN3C(=O)OC1(C)C3C2C (stereo not drawn) [Example 16],12.5,12.5,> 100,> 100,> 100,> 100,0.2,1.56,> 100,0.2,0.2,0.05,0.02,12.5,> 100,100,> 100,0.2,> 100,> 100,"MIC ([7]; S. aureus A5177, unit assumed): 0.39 µg/mL; MIC [14]: 0.39 µg/mL; MIC [15]: 50 µg/mL; MIC [16]: 12.5 µg/mL; MIC (ESCHERICHIA COLI H560): 6.2 µg/mL; MIC [17]: 0.2 µg/mL; MIC (ESCHERICHIA COLI SS): 0.1 µg/mL; MIC [18]: 0.2 µg/mL; MIC [19]: 12.5 µg/mL; MIC [20]: 0.39 µg/mL; MIC [21]: 0.02 µg/mL; MIC [22]: 0.01 µg/mL; MIC (ESCHERICHIA COLI KNK 437): 12.5 µg/mL"
CC[C@H]1OC(=O)[C@H](C)C(=O)[C@H](C)[C@@H](O[C@@H]2O[C@H](C)C[C@H](N(C)C)[C@H]2O)[C@](C)(OC)C[C@@H](C)C2=N[C@H](COCc3ccc(C#N)cc3)CN3C(=O)O[C@@]1(C)[C@H]3[C@H]2C [Example 74],50,> 100,50,> 100,> 100,> 100,0.2,0.39,> 100,0.39,0.02,0.02,0.02,100,> 100,100,> 100,0.2,> 100,> 100,MIC ([7]; S. aureus A5177): 0.1 µg/mL; MIC [14]: 3.1 µg/mL; MIC [15]: > 100 µg/mL; MIC [16]: > 100 µg/mL; MIC (ESCHERICHIA COLI H560): 100 µg/mL; MIC [17]: 0.1 µg/mL; MIC (ESCHERICHIA COLI SS): 0.39 µg/mL; MIC [18]: 0.2 µg/mL; MIC [19]: > 100 µg/mL; MIC [20]: 0.1 µg/mL; MIC [21]: ≤ 0.005 µg/mL; MIC [22]: ≤ 0.005 µg/mL; MIC (ESCHERICHIA COLI KNK 437): > 100 µg/mL
CC[C@H]1OC(=O)[C@H](C)C(=O)[C@H](C)[C@@H](O[C@@H]2O[C@H](C)C[C@H](N(C)C)[C@H]2O)[C@](C)(OC)C[C@@H](C)C2=N[C@H](COCc3ccccn3)CN3C(=O)O[C@@]1(C)[C@H]3[C@H]2C [Example 81],100,> 100,> 100,> 100,> 100,> 100,0.39,3.1,> 100,0.39,0.05,0.05,0.05,> 100,> 100,> 100,> 100,0.39,> 100,> 100,"MIC [23]: 0.39 µg/mL; MIC ([7]; S. aureus A5177, unit assumed): 0.39 µg/mL; MIC [14]: 3.1 µg/mL; MIC [15]: > 100 µg/mL; MIC [16]: > 100 µg/mL; MIC (ESCHERICHIA COLI H560): 50 µg/mL; MIC [17]: 0.39 µg/mL; MIC (ESCHERICHIA COLI SS): 1.56 µg/mL; MIC [18]: 0.39 µg/mL; MIC [20]: 0.39 µg/mL; MIC [21]: 0.05 µg/mL; MIC [22]: 0.05 µg/mL; MIC (ESCHERICHIA COLI KNK 437): > 100 µg/mL"

# — patent publication US6274715A, “Tricyclic erythromycin derivatives” (priority 1997, dated 2001)
